From US11371040B2, “Endonuclease-barcoding” (priority 2015, dated 2022)

Key:
MCF7 cells = assay: TP53 CRISPR-barcoding (TP53-STOP vs TP53-WT barcode, qPCR) in MCF7 cells; format: cell-based; details: relative to TP53-WT control barcode
Description: (§1) 293T (human embryonic kidney), DLD-1, HCT-116 (colorectal carcinoma), MCF-7 (breast cancer) were obtained from ATCC, PC9 cells (NSCLC) were obtained from ECACC-Sigma-Aldrich, Kelly cells (neuroblastoma) were a kind gift from Dr. C. Einvik. All cells were grown in Dulbecco's modified Eagle's Medium (Life technologies) except Kelly and PC-9 cells, grown in Roswell Park Memorial Institute medium (Life technologies), both supplemented with 10% fetal bovine serum (FBS, Life Technologies) and 0.6% penicillin/streptomycin (Life technologies). Cells were transfected with a Nucleofector II device (Lonza) using the Amaxa Nucleofector kit (Lonza) and electroporation program recommended by the manufacturer. 293T cells were transfected using polyethylenimine (Polysciences). The efficiency of each transfection was assessed in parallel using a GFP-containing plasmid. […]
(§2) gDNA was extracted using the NucleoSpin Tissue kit (Macherey-Nagel). […] Primer specificity for each particular barcode was assessed. qPCR was performed from 100 ng of gDNA using SYBR Green (Life Technologies) on a 7900 HT Fast-Real-Time, a Q-PCR ABI PRISM 7500 or a QuantStudio Flex PCR System (Life Technologies). qPCR analysis was performed using the standard curve or the Pfaffl methods (Pfaffl, 2001).

HCT-116 cells = assay: TP53 CRISPR-barcoding (TP53-STOP vs TP53-WT barcode, qPCR) in HCT-116 cells; format: cell-based; details: relative to TP53-WT control barcode
Description: as §1, §2

PC9 cells [1] = assay: KRAS-G12 CRISPR-barcoding in PC9 cells; format: cell-based; details: PC9 cells treated in the presence or absence of inhibitor
From the text: CRISPR Barcoding sgRNA target sequences (See Sequence Listing—SEQ ID No 1-14) were designed using the CRISPR Design tool hosted by the Massachusetts Institute of Technology (see the website located at crispr.mit,edu) to minimize potential off-target effects. Oligos encoding the targeting sequence were then annealed and ligated into the pSpCas9(BB)-2A-Puro (Ran et al., 2013) vector digested with Bbsl (New England Biolabs). The sequence of the ssODNs (Integrated DNA Technologies) used for CRISPR/Cas9-mediated HDR, containing one missense/nonsense mutation coupled with different silent mutations, are provided in the sequence listing (SEQ ID No 15-29). The set of silent mutations is designed to enable PCR specificity and to avoid recognition by the corresponding sgRNA used to cleave the endogenous sequence. For each targeted locus, cells were co-transfected with 2 μg of the CRISPR/Cas9 plasmid and […] of either the control or the sense/nonsense ssODN (50 μM). […]
as §2, with “2001). […]” for “2001).”

PC9 cells [2] = assay: EML4-ALK inversion barcoding in PC9 cells; format: cell-based
PC9 cells [3] = assay: Mouse xenografts of multiplex CRISPR-barcoded PC9 cells; format: in vivo, SCID mice
Description: PC9 cells containing the EGFR-T790, KRAS-G12 and EML4-ALK barcodes were resuspended in PBS and subcutaneously inoculated in the left and right flank (2×10^6 cells per site) of male SCID mice (NCI). The size of the tumors was measured by caliper every 3-4 days. […] When the size of at least one of the tumors reached the arbitrary volume of 550 mm^3, the mice were sacrificed and gDNA was extracted from the tumors for qPCR analysis.
When at least one of the two tumors exceeded the arbitrary volume of 550 mm^3, the mice were sacrificed and gDNA was derived from the tumors. The frequency of the three different mutations in the tumor samples was measured by qPCR and normalized to the levels observed in the same batch of cells prior to injection in the mice.

SMILES	fraction of cells containing the TP53-STOP barcode (MCF7 cells)	fraction of cells containing the TP53-STOP barcode (HCT-116 cells)	enrichment of KRAS-G12D cells (PC9 cells [1])	enrichment of EML4-ALK containing PC9 cells (PC9 cells [2])	growth of the tumors (PC9 cells [3]; 25 mg/kg/day by gavage, from day 16 after injection)	proportion of all three mutations (EGFR-T790M, KRAS-G12D, EML4-ALK) in the tumors (PC9 cells [3]; 25 mg/kg/day, qPCR, normalized to cells prior to injection)
COc1ccc(C2=N[C@@H](c3ccc(Cl)cc3)[C@@H](c3ccc(Cl)cc3)N2C(=O)N2CCNC(=O)C2)c(OC(C)C)c1 (racemic) [Nutlin 3]	significantly increased	significantly increased	–	–	–	–
COc1cccc2c1C(=O)c1c(O)c3c(c(O)c1C2=O)C[C@@](O)(C(=O)CO)C[C@@H]3O[C@H]1C[C@H](N)[C@H](O)[C@H](C)O1 [doxorubicin]	did not affect	did not affect	–	–	–	–
COc1cc2ncnc(Nc3ccc(F)c(Cl)c3)c2cc1OCCCN1CCOCC1 [gefitinib]	–	–	significant enrichment	induced an enrichment	initially arrested upon gefitinib treatment, but it eventually resumed after a few weeks	strongly increased
